Reference: US5356903A, “1-cyclopropyl-4-pyridyl-quinolines” (Sterling Winthrop Inc., priority 1993, dated 1994)
Where two headings read alike, the source gives them in different places.

Tests used:
human topoisomerase II = biological target: T1, human topoisomerase II (Homo sapiens, UniProt P11388); experiment: Mammalian Topoisomerase II Inhibition Assay (stabilization of DNA-topo II covalent complex); type: biochemical
T1 construct: Topo II was purified from late log phase suspension cultures of HeLa WIS; endogenous in cells; host or cells: HeLa WIS (late log phase suspension cultures); enzyme purified from the cells
From the text: Mammalian Topoisomerase II Inhibition Assay Procedure
The inhibition of human topoisomerase II (hereafter topo II) was quantitated by a procedure adapted from that described by Trask et al., EMBO J., 3, 671-676 (1984). The assay quantitates the amount of topo II covalently complexed by DNA at equilibrium during a topo II reaction. This assay determines the potential of a compound to stabilize this complex, which potential is closely related to the cytotoxicity of several clinically useful antineoplastic agents.
Topo II was purified from late log phase suspension cultures of HeLa WIS by an adaptation of the method described by Per et al., Mol. Pharmacol., 32, 17-25 (1987).
Assays (in duplicate) were assembled at 4° C. Assay mix (25 μl ) was distributed in Beckman (No. 265270) 1.5 mL microtitre tubes followed by the addition of 5 μl test to yield the final concentrations of assay components:
4 ng 3' end labeled (^32 p) pBR322 DNA (10^7 DPM/μg)
The assay mix including the test compound was incubated for 20 minutes at 37° C. The reaction was terminated at 37° C. by the addition of 3 μl 10% SDS followed by the addition of 266 μl 10 mM Tris-Cl pH 7.5, 20 μg/ml calf thymus DNA, 1% SDS.
A SDS/protein precipitate was formed by the addition of 28 μl 2.5M KCl followed by chilling on ice for a minimum of 10 minutes. The precipitate was collected and washed with a Brandell cell harvester on a GFB glass fiber filter membrane as follows. The contents of the assay tube were drawn up into the harvester. The tube was then rinsed 7× with 10 mM Tris-Cl pH 7.5, 1 mM EDTA and 100 mM KCl. The precipitate was washed with 1 L of a solution of 10 mM Tris-Cl pH 7.5, 1 mMEDTA, 100 mM KCl followed by 1 L of 95% ethyl alcohol and finally 0.5 L 70% of ethyl alcohol (per 48 samples in each case). After drying, CPM was determined by liquid scintillation counting with 5 ml Biofluor (NEN Research Products) or Readisafe (Beckman Instruments Inc.) cocktail.
Preparation of test compound--A stock solution (6 mg/ml) of test compound was prepared either in 0.1N sodium hydroxide or 0.2N hydrogen chloride. This solution then was diluted 1/5 into water and serially thereafter in either 0.02N sodium hydroxide or 0.04N hydrogen chloride, respectively. The stock solution and serial dilution of the test compound was stored at -20° C. prior to testing.
Screening of test compound--As an initial screen, the test compound was tested at a final concentration of 2, 20 and 200 μg/ml. The compound was then retested at a range of concentrations (usually 2-3× steps) bridging their approximate EC50 's, as estimated by the prescreen.
Controls--A solvent control which indicates the base level of topo II-DNA complexes formed in the absence of the test compound was included in each test. A control, in which topo II was omitted, was included for each test compound at the highest drug concentration tested.
Reference Agent--A dose response curve with mAMSA at 0.01, 0.08, 0.16, 0.32, 1.0 and 10 μg/ml was included in each test.
Data reduction--The EC50 (effective concentration at which 50% of the maximal DNA-topo II complex is formed) of a test compound is defined to be the concentration with activity equal to the EC50 of the reference agent, mAMSA. The maximal DNA-topo II complex formed is taken as that equal to that formed at the nearly saturating dose of mAMSA (10 μg/ml).
The results obtained for representative compounds of the invention in the human topoisomerase II assay procedure expressed as EC50 s (μM) are presented in Table 3.

[1] = system: pancreatic ductal adenocarcinoma No. 03 (Panc 03); experiment: In vivo antitumor assay, Panc03; parameters: species or system murine tumor in mice
From the text: (§1) In vivo Antitumor Assay Procedure
(§2) Mice: Inbred: C3H/He and NCR-nu; and Hybrids: B6D2F1 (C57BL/6 females×DBA/2 males, CD2F1 (Balb/c females×DBS/2 males) and B6C3fl (C57BL/6×C3H) were bred at Wayne State University from strains obtained from the Frederick Cancer Research Facility, Frederick, Md. or purchased from commercial suppliers.
Tumors: Murine Tumor: P388 leukemia and pancreatic ductal adenocarcinoma No. 03 (Panc 03) were used for in vivo testing. Human tumor: A single human tumor, mammary carcinoma MX-1 (MX1) was used for in vivo testing. All tumors are in the Developmental Therapeutics Program frozen tumor respository, maintained by the Biological Testing Branch, Frederick, Md. Each has a detailed description, code identification number, and list of references at the National Tumor Repository. Murine tumors were maintained in the mouse strain of origin and were transplanted in the appropriate F1 hydrid (or the strain of orgin) for therapy trials. Human mammary carcinoma MX-1 (MX1) was maintained as a subcutaneous implant in either athymic Swiss (Cr: NIH (S) - nu) or athymic random bred (NCR-nu) mice and transplanted in NCR-nu for therapy trials.
Chemotherapy: For pancreatic ductal adenocarcinoma No. 3, bilateral tumor implants were used to help ensure a more uniform tumor burden per mouse. The animals necessary to begin an experiment were pooled, implanted bilaterally s.c. on day zero with 30-60-mg tumor fragments using a 12-gauge trocar, and again pooled before randomization to the various treatment and control groups. Chemotherapy was started within three days after tumor implantation while the number of cells per mouse was relatively small (1×10^7 -1×10^8 cells).
End Points for Assessing Antitumor Activity
(§3) Quantitative end points used to assess antitumor activity were percent Increased Life Span (% ILS), and Tumor Growth Inhibition (T/C).
(§4) Endpoints were calculated as follows: […]
Tumors were measured with a caliper once or twice weekly (as needed) until either tumors exceeded 1600 mg or cure was assured. Tumor weights were estimated from two dimensional measurements: Tumor Weight (mg)+(a×b^2)/2, where a and b are the tumor length and width (mm) respectively. Measurements were carried out simultaneously in both treatment and control groups. When the control group tumors reached approximately 750-1500 mg in size (median of group), the median tumor weight of each group was determined (including zeros). The T/C value in percent is an indication of antitumor effectiveness. The % T/C was calculated from the following formula for solid murine tumor models: [formula] where T and C are median tumor weights of the treatment and control groups, respectively. A T/C equal to or less than 42% is considered significant antitumor activity. A T/C value<10% is indicative of a high degree of antitumor activity and is the level used by National Cancer Institute to justify further development if other requirements are met (termed DN-2 level activity). By convention the T/C value for the mammary carcinoma MX-1 model is calculated by the parameter of change in tumor weight. The % T/C was calculated from the following formula for the MX-1 model; [formula] where ΔT and ΔC are the change in mean tumor weight of the test and control groups, respectively, and T (initial) is the initial mean tumor weight of the test group. […] A % T/C≤10 is considered significant activity.

[2] = system: mammary carcinoma MX-1 (MX1); experiment: In vivo antitumor assay, mammary carcinoma MX-1; parameters: species or system human tumor in NCR-nu mice; settings: MX-1, sc tumor/ip drug
From the text: as §1, §2
Tumors: Murine Tumor: P388 leukemia and pancreatic ductal adenocarcinoma No. 03 (Panc 03) were used for in vivo testing. Human tumor: A single human tumor, mammary carcinoma MX-1 (MX1) was used for in vivo testing. All tumors are in the Developmental Therapeutics Program frozen tumor respository, maintained by the Biological Testing Branch, Frederick, Md. […]
as §3, §4
Tumors were measured with a caliper once or twice weekly (as needed) until either tumors exceeded 1600 mg or cure was assured. […] When the control group tumors reached approximately 750-1500 mg in size (median of group), the median tumor weight of each group was determined (including zeros). […] The % T/C was calculated from the following formula for solid murine tumor models: [formula] where T and C are median tumor weights of the treatment and control groups, respectively. […]

P388 leukemia = experiment: In vivo antitumor assay, P388 leukemia; parameters: species or system murine tumor in mice
From the text: as §1, §2
Tumors: Murine Tumor: P388 leukemia and pancreatic ductal adenocarcinoma No. 03 (Panc 03) were used for in vivo testing. Human tumor: A single human tumor, mammary carcinoma MX-1 (MX1) was used for in vivo testing. All tumors are in the Developmental Therapeutics Program frozen tumor respository, maintained by the Biological Testing Branch, Frederick, Md. Each has a detailed description, code identification number, and list of references at the National Tumor Repository. Murine tumors were maintained in the mouse strain of origin and were transplanted in the appropriate F1 hydrid (or the strain of orgin) for therapy trials. Human mammary carcinoma MX-1 (MX1) was maintained as a subcutaneous implant in either athymic Swiss (Cr: NIH (S) - nu) or athymic random bred (NCR-nu) mice and transplanted in NCR-nu for therapy trials. […]
as §3, §4

[3] = concentration with activity equal to EC50 of mAMSA, 20 min, 37° C, read-out: Topo II EC50
[4] = footnote *: bell shaped dose response, read-out: Topo II EC50 (bell shaped dose response)

T1 sequence (P11388 whole entry): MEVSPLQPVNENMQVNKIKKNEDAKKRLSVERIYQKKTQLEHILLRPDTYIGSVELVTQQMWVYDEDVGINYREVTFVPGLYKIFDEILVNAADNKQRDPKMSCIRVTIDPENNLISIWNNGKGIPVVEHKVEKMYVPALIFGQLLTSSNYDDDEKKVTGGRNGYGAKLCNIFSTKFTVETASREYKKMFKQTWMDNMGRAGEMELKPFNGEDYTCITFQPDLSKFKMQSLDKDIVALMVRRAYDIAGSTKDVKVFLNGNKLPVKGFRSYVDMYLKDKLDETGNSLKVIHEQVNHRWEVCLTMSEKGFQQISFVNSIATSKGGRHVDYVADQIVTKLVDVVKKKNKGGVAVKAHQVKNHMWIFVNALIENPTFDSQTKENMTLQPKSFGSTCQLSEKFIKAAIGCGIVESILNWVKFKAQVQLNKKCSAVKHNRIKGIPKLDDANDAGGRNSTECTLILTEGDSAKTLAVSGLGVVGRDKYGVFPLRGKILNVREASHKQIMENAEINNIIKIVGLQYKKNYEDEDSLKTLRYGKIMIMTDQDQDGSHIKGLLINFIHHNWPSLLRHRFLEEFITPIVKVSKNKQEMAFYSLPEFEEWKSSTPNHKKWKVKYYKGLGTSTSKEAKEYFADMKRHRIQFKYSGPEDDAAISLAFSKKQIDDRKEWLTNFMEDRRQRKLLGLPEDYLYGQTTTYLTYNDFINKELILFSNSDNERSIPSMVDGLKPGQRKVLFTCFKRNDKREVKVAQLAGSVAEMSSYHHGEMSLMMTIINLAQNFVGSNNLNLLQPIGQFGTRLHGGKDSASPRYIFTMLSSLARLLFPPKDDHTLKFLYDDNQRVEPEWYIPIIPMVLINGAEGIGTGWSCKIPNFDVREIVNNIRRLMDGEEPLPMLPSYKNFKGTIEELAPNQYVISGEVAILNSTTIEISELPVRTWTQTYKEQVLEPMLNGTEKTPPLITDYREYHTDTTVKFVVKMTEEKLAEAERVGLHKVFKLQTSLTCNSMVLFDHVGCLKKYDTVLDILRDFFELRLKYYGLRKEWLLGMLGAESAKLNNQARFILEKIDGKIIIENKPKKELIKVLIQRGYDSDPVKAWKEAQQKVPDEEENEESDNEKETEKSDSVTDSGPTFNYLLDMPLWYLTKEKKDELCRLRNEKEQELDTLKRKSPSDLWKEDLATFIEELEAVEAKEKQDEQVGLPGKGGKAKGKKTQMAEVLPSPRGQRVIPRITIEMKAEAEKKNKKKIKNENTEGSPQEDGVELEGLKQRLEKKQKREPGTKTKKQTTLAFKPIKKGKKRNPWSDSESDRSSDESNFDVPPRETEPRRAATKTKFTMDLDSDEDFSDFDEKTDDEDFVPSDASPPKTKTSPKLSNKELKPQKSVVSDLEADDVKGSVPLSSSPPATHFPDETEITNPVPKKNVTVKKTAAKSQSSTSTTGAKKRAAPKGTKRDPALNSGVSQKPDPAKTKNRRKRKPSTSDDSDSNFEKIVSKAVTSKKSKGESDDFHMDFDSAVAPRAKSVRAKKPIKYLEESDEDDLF

Compound	EC50 (human topoisomerase II; [3])	also measured
Cc1cc(-c2c(F)cc3c(=Nc4ccccn4)ccn(C4CC4)c3c2F)cc(C)n1 [Example 23]	3.6 µM	
Cc1cc(-c2c(F)cc3c(=O)ccn(C4CC4)c3c2F)cc(C)n1 [Int A]	17 µM	In vivo antitumor activity, Panc03 ([1]; Panc03, route not given): Inactive
Cc1cc(-c2c(F)cc3c(=NC4CC4)ccn(C4CC4)c3c2F)cc(C)n1 [Example 12]	2.4 µM	In vivo antitumor activity, Panc03 ([1]; Panc03, sc tumor/iv drug): Inactive
Cc1cc(-c2c(F)cc3c(c2F)N(C2CC2)C=CC3=CC#N)cc(C)n1 [Example 8b]	4 µM	
Cc1cc(-c2c(F)cc3c(=Nc4ccccc4O)ccn(C4CC4)c3c2F)cc(C)n1 [Example 24]	1.6 µM	
Cc1cc(-c2c(F)cc3c(=NNc4ccccn4)ccn(C4CC4)c3c2F)cc(C)n1 [Example 2]	0.98 µM	In vivo antitumor activity, MX-1 [2]: Inactive; In vivo antitumor activity, P388 (P388 leukemia; P388, ip tumor/ip drug): Inactive; In vivo antitumor activity, P388 (P388 leukemia; P388, ip tumor/iv drug): Inactive; % T/C (Tumor Growth Inhibition), Panc03 ([1]; Panc03, sc tumor/iv drug, T/C ≤42% considered significant): 37%
Cc1cc(-c2c(F)cc3c(=S)ccn(C4CC4)c3c2F)cc(C)n1 [Int B]		EC50 (human topoisomerase II; footnote E: endpoint of assay extrapolated, read-out: Topo II EC50 (endpoint of assay extrapolated)): 76 µM
Cc1cc(-c2c(F)cc3c(=NN4C(=O)c5ccccc5C4=O)ccn(C4CC4)c3c2F)cc(C)n1 [Example 6]	16 µM	
CON=c1ccn(C2CC2)c2c(F)c(-c3cc(C)nc(C)c3)c(F)cc12 [Example 17]		EC50 (human topoisomerase II; [4]): 2.6 µM
Cc1cc(-c2c(F)cc3c(=NCCN(C)C)ccn(C4CC4)c3c2F)cc(C)n1 [Example 20]	14 µM	
Cc1cc(-c2c(F)cc3c(=NO)ccn(C4CC4)c3c2F)cc(C)n1 [Example 10]	1.4 µM	In vivo antitumor activity, Panc03 ([1]; Panc03, sc tumor/iv drug): Inactive
Cc1cc(-c2c(F)cc3c(=Nc4ccccc4)ccn(C4CC4)c3c2F)cc(C)n1 [Example 22]	1.9 µM	
Cc1cc(-c2c(F)cc3c(=NNc4c5ccccc5nc5ccccc45)ccn(C4CC4)c3c2F)cc(C)n1 [Example 14]	28 µM	
CNN=c1ccn(C2CC2)c2c(F)c(-c3cc(C)nc(C)c3)c(F)cc12 [Example 9]	1.9 µM	
Cc1cc(-c2c(F)cc3c(=NN(C)C)ccn(C4CC4)c3c2F)cc(C)n1 [Example 11]	2.3 µM	
Cc1cc(-c2c(F)cc3c(=NNC(N)=O)ccn(C4CC4)c3c2F)cc(C)n1 [Example 13]	3.1 µM	In vivo antitumor activity, Panc03 ([1]; Panc03, sc tumor/iv drug): Inactive
CC(=O)NN=c1ccn(C2CC2)c2c(F)c(-c3cc(C)nc(C)c3)c(F)cc12 [Example 5]	20 µM	
Cc1cc(-c2c(F)cc3c(=N)ccn(C4CC4)c3c2F)cc(C)n1 [Example 4]	12 µM	
Cc1cc(-c2c(F)cc3c(=NSc4ccccn4)ccn(C4CC4)c3c2F)cc(C)n1 [Example 19]	3.8 µM	
CSc1cc[n+](C2CC2)c2c(F)c(-c3cc(C)nc(C)c3)c(F)cc12 [Int C]	24 µM	
Cc1cc(-c2c(F)cc3c(c2F)N(C2CC2)C=CC3=C(C#N)C#N)cc(C)n1 [Example 7]		EC50 (human topoisomerase II; [4]): 6.3 µM
Cc1cc(-c2c(F)cc3c(=NCCCN(C)C)ccn(C4CC4)c3c2F)cc(C)n1 [Example 21]	5.5 µM	
Cc1cc(-c2c(F)cc3c(=NN)ccn(C4CC4)c3c2F)cc(C)n1 [Example 1]	1.7 µM	In vivo antitumor activity, Panc03 ([1]; Panc03, sc tumor/iv drug): Inactive
Cc1cc(-c2c(F)cc3c(=NSc4ccc(Cl)cc4)ccn(C4CC4)c3c2F)cc(C)n1 [Example 18]	9.4 µM	
CCOC(=O)C(C#N)=C1C=CN(C2CC2)c2c1cc(F)c(-c1cc(C)nc(C)c1)c2F [Example 8a]		EC50 (human topoisomerase II; [4]): 4.8 µM
Cc1cc(-c2c(F)cc3c(=NNCCO)ccn(C4CC4)c3c2F)cc(C)n1 [Example 15]	3.2 µM	
Cc1ccc(S(=O)(=O)N=c2ccn(C3CC3)c3c(F)c(-c4cc(C)nc(C)c4)c(F)cc23)cc1 [Example 3]		EC50 (human topoisomerase II; [4]): 45 µM
Cc1cc(-c2c(F)cc3c(=NNc4cnc5ccccc5c4)ccn(C4CC4)c3c2F)cc(C)n1 [Example 16]	92 µM	
Cc1cc(-c2c(F)cc3c(=Nc4ccc(N)cc4)ccn(C4CC4)c3c2F)cc(C)n1 [Example 25]	7.6 µM	
